Measured values as given in patent publication US20230364194A1, “GLP-1R/GCGR Dual Target Agonist Polypeptide Derivative for Treatment of Hepatic Fibrosis Associated with Viral Hepatitis” (Shenzhen Turier Biotech. Co., Ltd., priority 2020, published 2023).
Starred links: 1 amine or outer side, 2 acyl side, 3 side chain; linkers in the order of their positions; H or OH if unused. Non-standard residues stand in square brackets, D forms with d. Groups on a side chain read outwards from the residue. Primed or numbered codes have the meaning given here. No end group written: not given here. *: point of attachment. C18 diacid = O=C(O)CCCCCCCCCCCCCCCCC(=O)*; C16 diacid = O=C(O)CCCCCCCCCCCCCCC(=O)*; γGlu = O=C(O)[C@H](CCC(=O)[*:2])N[*:1]; Stearoyl = CCCCCCCCCCCCCCCCCC(=O)*; Palmitoyl = CCCCCCCCCCCCCCCC(=O)*; PEG2′ = not defined here

Tested on: Hepatic stellate cell strain LX-2
Assay: In vitro effect on expression of LX-2 cell activation marker α-SMA (Western Blot, β-actin reference)
Type: cell-based
Conditions: LX-2 cells, 10.0 uM, 48 hours, negative control = 100%
Excerpt: Hepatic stellate cell strain LX-2 (from China Center for Type Culture Collection, Shanghai) was selected to study and observe the effects of polypeptide compounds 1-25 on the expression level of LX-2 cell activation marker α-smooth muscle actin (α-SMA). The control group was given the same volume of Dulbecco’s modified Eagle medium (DMEM) (from Gibco, United States), and β-actin (from TransGen Biotech) as the endogenous reference, wherein, α-SMA is a symbolic feature that distinguishes […] from myofibroblasts.
Hepatic stellate cell LX-2 was laid on 35 mm cell culture plate, cultured with DMEM (high glucose)+10% FBS+1% double-antibody culture medium (Thermo Fisher), placed overnight when the cells grew to 70% convergence at 37° C. under the condition of 5% CO2 without serum, and treated with the above GLP-1R/GCGR dual target agonist polypeptide derivatives (namely, polypeptide compounds 1-25) (dissolved in PBS) for 48 hours from the next morning to extract cell protein, and then Western Blot was performed with β-actin as endogenous reference to analyze the expression levels of α-SMA and β-actin by gray-scale analysis using Image J 1.50i. PBS with the same volume as that in experimental group was added in negative control.
The above polypeptide compounds 1-25 with a concentration of 10.0 µM were added, showing that they could reduce the expression of α-SMA at the concentration of 10.0 µM; and the negative control had no effect on the expression of α-SMA (referring to Table 2).
The integrated gray scale of α-SMA/β-actin in the negative control group was considered to be 100% to analyze the in vitro inhibitory activity on hepatic fibrosis by tested polypeptides.

Row | Substance | Relative expression of α-SMA (α-SMA/β-actin, %) [%]
1 | His-(D-Ser)-Gln-Gly-Thr-Phe-Thr-Ser-Asp-Tyr-Ser-Lys-Tyr-Leu-Asp-Glu-Lys(PEG2-PEG2-γGlu-CO(CH2)16CO2H)-Ala- Ala-His-Asp-Phe-Val-Glu-Trp-Leu-Leu-Asn-Gly-Gly-Gly-Pro-Ser-Ser-Gly-Ala-Pro-Pro-Pro-Ser-NH2 (H[dS]QGTFTSDYSKYLDEK([PEG2′-PEG2′-γGlu-C18 diacid])AAHDFVEWLLNGGGPSSGAPPPS-NH2) [Compound 9] | 40.89
2 | His-(D-Ser)-Gln-Gly-Thr-Phe-Thr-Ser-Asp-Tyr-Ser-Lys-Tyr-Leu-Asp-Glu-Lys-Ala-Ala-Lys(PEG2-PEG2-yGlu- CO(CH2)16CO2H)-Glu-Phe-Ile-Glu-Trp-Leu-Leu-Asn-Gly- Gly-Gly-Pro-Ser-Ser-Gly-Ala-Pro-Pro-Pro-Ser-NH2 (H[dS]QGTFTSDYSKYLDEKAAK([PEG2′-PEG2′-γGlu-C18 diacid])EFIEWLLNGGGPSSGAPPPS-NH2) [Compound 12] | 41.99
3 | His-(D-Ser)-Gln-Gly-Thr-Phe-Thr-Ser-Asp-Tyr-Ser-Lys-Tyr-Leu-Asp-Glu-Lys-Ala-Ala-Lys(PEG2-PEG2-γGlu- CO(CH2)14C3)-Glu-Phe-Ile-Glu-Trp-Leu-Leu-Arg-Gly-Gly- Gly-Pro-Ser-Ser-Gly-Ala-Pro-Pro-Pro-Ser-NH2 (H[dS]QGTFTSDYSKYLDEKAAK([PEG2′-PEG2′-γGlu-Palmitoyl])EFIEWLLRGGGPSSGAPPPS-NH2) [Compound 10] | 46.35
4 | His-(D-Ser)-Gln-Gly-Thr-Phe-Thr-Ser-Asp-Tyr-Ser-Lys-Tyr-Leu-Asp-Glu-Lys-Ala-Ala-Lys(PEG2-PEG2-γGlu- CO(CH2)16CH3)-Glu-Phe-Ile-Glu-Trp-Leu-Leu-Asn-Gly-Gly- Gly-Pro-Ser-Ser-Gly-Ala-Pro-Pro-Pro-Ser-NH2 (H[dS]QGTFTSDYSKYLDEKAAK([PEG2′-PEG2′-γGlu-Stearoyl])EFIEWLLNGGGPSSGAPPPS-NH2) [Compound 14] | 47.85
5 | His-(D-Ser)-Gln-Gly-Thr-Phe-Thr-Ser-Asp-Tyr-Ser-Lys-Tyr-Leu-Asp-Glu-Lys-Ala-Ala-Lys(PEG2-PEG2-γGlu- CO(CH2)16CO2H)-Glu-Phe-Ile-Glu-Trp-Leu-Leu-Arg-Thr-Gly- Gly-Pro-Ser-Ser-Gly-Ala-Pro-Pro-Pro-Ser-NH2 (H[dS]QGTFTSDYSKYLDEKAAK([PEG2′-PEG2′-γGlu-C18 diacid])EFIEWLLRTGGPSSGAPPPS-NH2) [Compound 8] | 39.92
6 | His-(D-Ser)-Gln-Gly-Thr-Phe-Thr-Ser-Asp-Tyr-Ser-Lys-Tyr-Leu-Asp-Glu-Lys-Ala-Ala-Lys(PEG2-PEG2-γGlu-CO(CH2)14CO2H)-Glu-Phe-Ile-Glu-Trp-Leu-Leu-Asn-Gly- Gly-Gly-Pro-Ser-Ser-Gly-Ala-Pro-Pro-Pro-Ser-NH2 (H[dS]QGTFTSDYSKYLDEKAAK([PEG2′-PEG2′-γGlu-C16 diacid])EFIEWLLNGGGPSSGAPPPS-NH2) [Compound 13] | 40.46
7 | His-(D-Ser)-Gln-Gly-Thr-Phe-Thr-Ser-Asp-Tyr-Ser-Lys-Tyr-Leu-Asp-Lys(PEG2-PEG2-CO(CH2)16CO2H)-Arg-Arg-Ala- Gln-Asp-Phe-Val-Gln-Trp-Leu-Met-Asn-Thr-Gly-Gly-Pro-Ser-Ser-Gly-Ala-Pro-Pro-Pro-Ser-NH2 (H[dS]QGTFTSDYSKYLDK([PEG2′-PEG2′-C18 diacid])RRAQDFVQWLMNTGGPSSGAPPPS-NH2) [Compound 18] | 45.95
8 | His-(D-Ser)-Gln-Gly-Thr-Phe-Thr-Ser-Asp-Tyr-Ser-Lys-Tyr-Leu-Asp-Lys(PEG2-PEG2-CO(CH2)16CO2H)-Arg-Arg-Ala- Gln-Asp-Phe-Val-Gln-Trp-Leu-Nle-Asn-Thr-Gly-Gly-Pro-Ser-Ser-Gly-Ala-Pro-Pro-Pro-Ser-NH2 (HXQGTFTSDYSKYLDKRRAQDFVQWLXNTGGPSSGAPPPS; D-Ser; Nle; PEG2-PEG2-C18 diacid lipidation; C-terminal amide; (2)..(2) Xaa=D-Ser; (16)..(16) A side chain of Lys is linked to -PEG2-PEG2-CO(CH2)16CO2H; (27)..(27) Xaa=Nle) [Compound 24] | 52.65
